Results: patent US7247294B1, “Skin lightening agents, compositions and methods” (Conopco, Inc., priority 2006, dated 2007)

Test system: Melanoderm cultures
Assay: Solvable Melanin Assay on Melanoderm cultures (3-D skin model)
Format: cell-based
Conditions: Melanoderm cultures fed every other day for 2 weeks, controls DMSO 1.292, untreated 1.259
Protocol: This experiment was carried out using Melanoderm cultures. Luminescence was measured using a chromameter to assay the degree of melanization of a 3-D skin model.
Method for Melanoderm Cultures
Melanoderm cultures were obtained from MatTek Corporation, Ashland, Mass. The Melanoderm was maintained according to the manufacturer's instructions. The basal media used for the maintenance of the Melanoderm cultures was DMEM supplemented with unspecified quantities of Epidermal growth factor, Insulin, Hydrocortisone, and proprietary epidermal differentiation compounds, in addition to anti-fungal and antibiotics.
For the long term maintenance of the Melanoderms, the basal media was supplemented with both bFGF and a-MSH, compounds which are stimulators of melanocyte growth and melanogenesis. The cultures were fed every other day for a total of 2 weeks—fresh active preparations, prepared in DMSO or culture media, were also applied to the Melanoderms when feeding was performed. Each treatment condition was done in duplicate and digital photographs were taken of the Melanoderm cultures to assess overall pigmentation. As well, microscopic images of the Melanoderms were done to assess the cell viability of the keratinocytes and melanocytes. For further evidence that the treatments were/not cytotoxic, an LDH assay (Promega, Madison, Wis.) was performed on the supernatants from 24 hour post-treatment cultures.
To prepare tissues for assay:
After treatment, tissues are usually frozen until completion of the experiment. Thaw tissues, a few at a time and place in D-PBS to remove excess phenol red from the culture medium and residual test article. Remove a single tissue from the insert. Blot dry and place in 1.7 ml. microfuge tube. Repeat for all samples. Add 250 ul Solvable™ (Tissue and Gel Solubilizer 0.5 M—Packard BioScience Co. Catalogue No. 6NE9100 (NEF910)). Close the tube and make sure that the tissue is completely submerged. Incubate at 60° C. overnight along with standards. In the morning, vortex the samples. Sometimes thick tissues will require additional time to complete the solution process. To prepare standard: Dissolve Melanin (Sigma cat. M 8631) in Solvable at 1 mg/ml. The solution may be warmed gently for 15 minutes at 37° C. Store solution in dark. To prepare standard curve: Prepare dilutions from the standard containing 0 ug to 250 ug of melanin in a total of 250 ul Solvable. Incubate dilutions along with samples. To read assay: Cool samples and standards. Centrifuge at 13,000 rpm for 5 minutes to pellet. Fill microwell plate (C-96) with 200 ul each of samples and standards. There is some foaming of samples when pipetted. Blow gently across the samples to break bubbles prior to reading the plate. Read plate at […].

O=c1oc2cc(O)ccc2cc1-c1ccccc1 [7-hydroxy-3-phenylcoumarin]
OD = 490 nm (melanin content) (25 uM): 1.674 | OD = 490 nm (melanin content) (50 uM): 1.339 | OD = 490 nm (melanin content) (75 uM): 0.849 | OD = 490 nm (melanin content) (100 uM): 0.293
